Measured values taken from paper PMC11154727, “Systematic Studies on the Anti-SARS-CoV-2 Mechanisms of Tea Polyphenol-Related Natural Products” (ACS Omega, 2024).
Where two headings read alike, the source gives them in different places.

Columns and labels:
SARS-CoV-2 PL^pro = SARS-CoV-2 PL^pro (Severe acute respiratory syndrome coronavirus 2, UniProt P0DTD1); assay: PLpro inhibition (proteolytic, deubiquitinating, deISGylation activities); format: biochemical
TMPRSS2 = target: T1, TMPRSS2 (Homo sapiens, UniProt O15393); assay: TMPRSS2 inhibition (Boc-Gln-Ala-Arg-AMC fluorogenic substrate); format: biochemical
T1 construct: The recombinant TMPRSS2 ectodomain (residues 109–492), excluding the transmembrane domain; His tag; made in house; host or cells: ExpiSf9 insect cells (baculovirus)

[1] = Cytotoxicity, acid phosphatase (ACP) assay; format: cell-based; details: African green monkey
Method: (§1) Cytotoxicity of the compounds was determined using the acid phosphatase (ACP) assay. Vero E6 cells were seeded onto a 96-well culture plate at a concentration of 2 × 10^4 cells per well. Next day, the medium was removed, and each well was washed once with PBS before adding DMEM containing 2% FBS and different concentrations of test compounds. After 3 days of incubation at 37 °C, the medium was removed, and each well was washed once with PBS. Next, a buffer containing 0.1 M sodium acetate (pH = 5.0), 0.1% Triton X-100, and 5 mM p-nitrophenyl phosphate was added. After incubating at 37 °C for 30 min, 1 N NaOH was added to stop the reaction. The absorbance was measured using an ELISA reader (VERSAmax, Molecular Devices, Sunnyvale, CA) at a wavelength of 405 nm. The percentage of cell viability was calculated by using the following formula: Viability % = [ (At/As) × 100]%, where At and As represent the absorbance of the test compound and the solvent control, respectively. […] For each compound, the measurements were repeated at least 3 times to determine the averaged CC50 values and standard deviation.

[2] = tested on: SARS-CoV-2 Omicron BA.5 (NTU280); assay: Antiviral plaque reduction assay, Omicron BA.5 strain, Vero E6 cells; format: cell-based
SARS-CoV-2 3CL^pro = SARS-CoV-2 3CL^pro (Severe acute respiratory syndrome coronavirus 2, UniProt P0DTD1); assay: 3CLpro inhibition (fluorogenic peptide); format: biochemical
[3] = tested on: SARS-CoV-2 Delta virus (NTU92); assay: microbe, parasite or virus in culture; format: cell-based
cathepsin L = target: T2, cathepsin L (Homo sapiens, UniProt P07711); assay: Cathepsin L inhibition (Cathepsin L Protease Assay Kit, fluorescence); format: biochemical
T2 construct: purchased Abcam
Method: Cathepsin L activity was determined using a commercial Cathepsin L Protease Assay Kit (Abcam, U.K.) in 20 μL reaction mixtures on a 384-well plate (PerkinElmer). Different concentrations of each inhibitor were added to the assay buffer supplied with dithiothreitol (DTT) in the kit, also containing 1% DMSO from the stock solutions of inhibitors. The fluorescence intensity was monitored for 30 min at excitation and emission wavelengths of 380/460 nm. The concentration-dependent inhibition curves of cathepsin L were fitted with the equation A(I) = A(0) x {1–[I/(I + IC50)]} using GraphPad Prism (v.9.4.0). The measurements were performed in triplicate to generate the averaged IC50 values and the standard deviations.

SARS-CoV-2 RdRp = SARS-CoV-2 RdRp (Severe acute respiratory syndrome coronavirus 2, UniProt P0DTD1); assay: RdRp inhibition (nsp12/nsp7L8/nsp8 complex, ProFoldin kit); format: biochemical; details: triplicate
furin = target: T3, furin (Homo sapiens, UniProt P09958); assay: Furin inhibition (Furin Protease Assay Kit, fluorescence); format: biochemical
T3 construct: purchased BPS Bioscience 78040
Method: Following the protocol as described in ref ([35]) a commercial Furin Protease Assay Kit (BPS Bioscience, catalog#78040) was employed to assay furin activities. It was conducted in 20 μL reaction mixtures on a 384-well plate (PerkinElmer) comprising 0.25 ng/μL furin, 2 μM substrate, and different concentrations of inhibitors in the assay buffer with 1% DMSO from the stock solutions of compounds. Fluorescence intensity was monitored at excitation/emission wavelengths of 380/460 nm. The concentration-dependent inhibition curves of furin were fitted with the equation A(I) = A(0) x {1–[I/(I + IC50)]} using GraphPad Prism (v.9.4.0). All of the measurements were performed in triplicate to determine the averaged IC50 values and the standard deviations.

recombinant ACE2 and RBD = details: at 60 μM; cited from earlier work
wild-type SARS-CoV-2 = assay: microbe, parasite or virus in culture; format: cell-based; details: Severe acute respiratory syndrome coronavirus 2, read-out: EC50 wild-type strain
Vero E6 cells = assay: Cytotoxicity, acid phosphatase (ACP) assay; format: cell-based; details: Vero E6, 3 days
Method: as §1

[4] = one entry for PL^pro, the three activities not told apart, read-out: IC50 PL^pro
[5] = 1.3 nM TMPRSS2, 10 μM substrate, triplicate
[6] = Severe acute respiratory syndrome coronavirus 2, Vero C1008, Omicron BA.5, plaque reduction, Vero E6, read-out: EC50 ο BA.5 (converted)
[7] = 35 nM 3CL^pro, 6 μM substrate, read-out: IC50 3CL^pro
[8] = Severe acute respiratory syndrome coronavirus 2, Vero C1008, Delta strain, plaque reduction, Vero E6, entry treatment, read-out: EC50 δ
[9] = substrate ISG15-AMC, third of three values, read-out: IC50 PL^pro, deISGylation activity
[10] = substrate Ub-AMC, second of three values, read-out: IC50 PL^pro, deubiquitinating activity
[11] = substrate Z-Arg-Leu-Arg-Gly-Gly-AMC, first of three values, read-out: IC50 PL^pro, proteolytic activity

T3 sequence (P09958 108-794): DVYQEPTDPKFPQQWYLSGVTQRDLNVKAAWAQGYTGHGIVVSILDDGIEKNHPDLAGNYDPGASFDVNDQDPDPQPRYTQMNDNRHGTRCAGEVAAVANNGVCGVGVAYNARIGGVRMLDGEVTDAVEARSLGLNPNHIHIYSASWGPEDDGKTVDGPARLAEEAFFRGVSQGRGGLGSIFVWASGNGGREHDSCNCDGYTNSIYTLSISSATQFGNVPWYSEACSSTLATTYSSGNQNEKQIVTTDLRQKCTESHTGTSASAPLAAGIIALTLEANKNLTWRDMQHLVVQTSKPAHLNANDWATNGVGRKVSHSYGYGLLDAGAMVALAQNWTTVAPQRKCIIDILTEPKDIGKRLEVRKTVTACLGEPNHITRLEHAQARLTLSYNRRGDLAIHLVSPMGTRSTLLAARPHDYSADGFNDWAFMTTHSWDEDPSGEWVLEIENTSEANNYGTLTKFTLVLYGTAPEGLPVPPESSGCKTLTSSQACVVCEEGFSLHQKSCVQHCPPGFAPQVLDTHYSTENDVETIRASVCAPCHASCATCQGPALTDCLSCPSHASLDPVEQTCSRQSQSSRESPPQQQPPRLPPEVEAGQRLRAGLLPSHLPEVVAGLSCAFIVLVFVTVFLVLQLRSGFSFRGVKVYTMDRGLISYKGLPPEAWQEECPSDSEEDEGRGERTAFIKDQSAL
T2 sequence (P07711 114-333): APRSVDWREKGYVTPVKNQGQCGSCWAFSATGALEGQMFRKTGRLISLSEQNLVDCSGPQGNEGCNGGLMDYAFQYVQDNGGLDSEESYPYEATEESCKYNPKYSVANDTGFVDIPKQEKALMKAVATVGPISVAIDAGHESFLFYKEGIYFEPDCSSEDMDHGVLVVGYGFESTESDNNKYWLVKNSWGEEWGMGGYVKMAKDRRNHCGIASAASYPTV
T1 sequence (O15393 109-492 S251D/R252D/Q253D/S254D/R255K limits assumed): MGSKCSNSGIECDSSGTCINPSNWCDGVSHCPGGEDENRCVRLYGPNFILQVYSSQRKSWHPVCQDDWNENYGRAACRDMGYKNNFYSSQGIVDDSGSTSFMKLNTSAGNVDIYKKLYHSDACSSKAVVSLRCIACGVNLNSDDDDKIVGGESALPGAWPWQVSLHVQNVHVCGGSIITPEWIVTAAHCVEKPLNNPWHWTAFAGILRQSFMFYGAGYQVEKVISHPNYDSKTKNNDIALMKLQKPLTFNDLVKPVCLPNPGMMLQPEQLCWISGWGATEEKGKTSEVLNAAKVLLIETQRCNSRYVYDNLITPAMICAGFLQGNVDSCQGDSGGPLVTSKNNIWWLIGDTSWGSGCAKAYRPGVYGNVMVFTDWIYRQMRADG

Compound | IC50 (SARS-CoV-2 PL^pro; [4]) [µM] | IC50 (TMPRSS2; [5]) [µM] | CC50 at 3 days [1] [µM] | EC50 [2, 6] [µM] | IC50 (SARS-CoV-2 3CL^pro; [7]) [µM] | EC50 [3, 8] [µM] | IC50 (cathepsin L; triplicate, mean ± SD) [µM] | IC50 (SARS-CoV-2 RdRp) [µM] | IC50 (furin; triplicate, mean ± SD) [µM] | IC50 (SARS-CoV-2 PL^pro; [9]) [µM] | IC50 (SARS-CoV-2 PL^pro; [10]) [µM] | IC50 (SARS-CoV-2 PL^pro; [11]) [µM] | other results
O=C(O[C@@H]1Cc2c(O)cc(O)cc2O[C@@H]1c1cc(O)c(=O)c2c(O)c(O)c(O)cc2c1)c1cc(O)c(O)c(O)c1 [epitheaflagallin-3-O-gallate] | > 100 | 35.3 ± 2.7 | 109 ± 45.3 | 0.6 | 31.2 ± 2.6 | 0.5 ± 0.1 | > 100 | > 100 | 55 ± 6.5 | – | – | – | –
O=C(O[C@@H]1Cc2c(O)cc(O)cc2O[C@@H]1c1cc(O)c(=O)c2c(O)c(O)cc([C@H]3Oc4cc(O)cc(O)c4C[C@H]3O)c2c1)c1cc(O)c(O)c(O)c1 [theaflavin-3-gallate] | > 100 | 48.7 ± 3 | > 100 | 0.4 | 8.8 ± 0.8 | 0.4 | > 100 | > 100 | 36.7 ± 5.7 | – | – | – | –
O=C(O[C@@H]1Cc2c(O)cc(O)cc2O[C@@H]1c1cc(O)c(=O)c2c(O)c(O)cc([C@H]3Oc4cc(O)cc(O)c4C[C@H]3OC(=O)c3cc(O)c(O)c(O)c3)c2c1)c1cc(O)c(O)c(O)c1 [TF3, theaflavin-3,3′-digallate] | – | – | > 100 | – | – | – | – | – | – | – | – | – | inhibition of the interaction between recombinant ACE2 and RBD (recombinant ACE2 and RBD): effectively inhibiting; EC50 (wild-type SARS-CoV-2): 0.3 µM; EC50 ([2]; Severe acute respiratory syndrome coronavirus 2, Vero C1008, read-out: EC50 ο BA.5): 0.2 µM; EC50 ([3]; Severe acute respiratory syndrome coronavirus 2, Vero C1008): 0.2 µM
O=c1c(O)cc([C@H]2Oc3cc(O)cc(O)c3C[C@H]2O)cc2c([C@H]3Oc4cc(O)cc(O)c4C[C@H]3O)cc(O)c(O)c12 [theaflavin] | – | > 100 | 66.4 ± 3.2 | 2.2 | 16.1 ± 2.5 | 7.4 ± 0.1 | 11.1 ± 1.1 | 40.2 ± 2.3 | > 100 | 11.2 ± 1.3 | 10.6 ± 0.9 | 9.9 ± 0.9 | –
O=C(O[C@@H]1Cc2c(O)cc(O)cc2O[C@@H]1c1cc(O)c(O)c2c(=O)c(O)cc([C@H]3Oc4cc(O)cc(O)c4C[C@H]3O)cc12)c1cc(O)c(O)c(O)c1 [theaflavin-3′-gallate] | > 100 | 6.2 ± 0.6 | 69.9 ± 12.9 | 0.4 | 6.7 ± 0.8 | 0.8 ± 0.1 | 51.1 ± 2.2 | 23.2 ± 0.4 | 58.5 ± 6.4 | – | – | – | –
Oc1cc(O)c2c(c1)OC(c1ccc(O)c(O)c1)C(O)C2 (stereo not shown) [catechin] | – | > 100 | – | > 10 | – | > 10 | > 100 | > 100 | > 100 | 17.8 ± 2.2 | 24.6 ± 3.3 | 18.7 ± 3.5 | CC50 at 3 days ([1]; Vero E6 cells, Vero E6, 3 days, read-out: CC50): 107 µM; IC50 (SARS-CoV-2 3CL^pro): > 100 µM; inhibition against 3CL^pro (SARS-CoV-2 3CL^pro; in words): no inhibition; inhibition of Delta SARS-CoV-2 ([3]; at 10 μM): did not inhibit
proanthocyanidin | – | – | – | – | – | – | – | 23.4 ± 1.3 | – | 7.3 ± 0.6 | 3.3 ± 0.4 | 2.4 ± 0.3 | IC50 (TMPRSS2): 47 ± 4.6 µM; CC50 (Vero E6 cells): > 100 µM; EC50 ([2]; Omicron BA.5, plaque reduction, Vero E6, read-out: EC50 ο BA.5 (converted)): 0.2 µM; IC50 (SARS-CoV-2 3CL^pro; read-out: IC50 3CL^pro): 18.4 ± 1.1 µM; EC50 ([3]; Delta strain, plaque reduction, Vero E6, entry treatment, read-out: EC50 δ): 0.5 ± 0.1 µM; IC50 (cathepsin L): > 100 µM; IC50 (furin): > 100 µM
